# Test results as given in US10301354B2, “Antibacterial and fungicidal peptide in which lysine and tryptophan residues are repeated, and use thereof” (priority 2011, dated 2019).
# Like-named read-outs stand apart in the source and are kept apart here. Where no end group is shown, it is not given here.
# Experiments:
# C. albicans CCARM 14001 = assay: MIC in antibiotic-tolerant fungi; type: cell-based; details: Candida albicans, CCARM14001; RMPI 1640
# Description: (§1) To measure the fungicidal activity of the peptide prepared in Example 1, the present inventors measured MIC, the minimal concentration that can keep the strain without being divided. For the measurement of fungicidal activity, pathogenic fungi selected from the group consisting of Candida albicans, C. catenulate, C. intermidia, C. rugosa, C. glabrata and C. melibiosica were used. After cultured in optimal media, the strains were diluted at the density of 2×10^5 cells/ml, which were then inoculated on microtitrate plates. The peptide synthesized in Example 1 and the positive control peptide (Melittin) were 2-fold diluted in solution 1 (10 mM sodium phosphate buffer, pH 7.2) and solution 2 (phosphate buffered saline) from 128 μM/well, which were added in the plate, followed by culture at 37° C. for 18˜24 hours. OD620 was measured with a microtitrate plate reader to determine MIC of each strain.
# (§2) To measure the fungicidal activity of the peptide of the present invention in antibiotic-tolerant fungi, MIC of the peptide was measured by the same manner as described in Example <2-2> using RMPI 1640 and antibiotic-tolerant Candida albicans (C. albicans CCARM 14001, 14007, 14020).
# C. albicans CCARM 14007 = assay: MIC in antibiotic-tolerant fungi; type: cell-based; details: Candida albicans, CCARM14007; RMPI 1640
# Description: as §1, §2
# C. albicans CCARM 14020 = assay: MIC in antibiotic-tolerant fungi; type: cell-based; details: Candida albicans, CCARM14020
# Description: as §1, §2
# L. monocytogenes = type: cell-based, Listeria monocytogenes
# Description: (§3) To measure the antibacterial activity of the peptide prepared in Example 1, the present inventors measured MIC, the minimal concentration that can keep the strain without being divided. For the measurement of antibacterial activity, Gram-positive bacteria selected from the group consisting of Bacillus subtilis, Staphylococcus aureus and Listeria monocytogenes, Gram-negative bacteria selected from the group consisting of Escherichia coli, Psedomonas aeruginosa and Salmonella typhimurium, and antibiotic-tolerant strains selected from the group consisting of E. coli (E. coli CCARM 1229, 1238), Salmonella (S. typhimurium CCARM 8007, 8009, 8013) and Staphylococcus (S. aureus CCARM 3089, 3090, 3108, 3114, 3126) were used. After cultured in optimal media, the strains were diluted at the density of 2×10^5 cells/ml, which were then inoculated on microtitrate plates. The peptide synthesized in Example 1 and the positive control peptide (Melittin) were 2-fold diluted in sodium phosphate buffer and phosphate buffered saline (PBS) from 200 μM/well, which were added in the plate, followed by culture at 37° C. for 18˜24 hours. OD620 was measured with a microtitrate plate reader to determine MIC of each strain. The results are presented in Table 1 (the number in bracket indicates the one obtained from PBS).
# E. coli CCARM 1238 = type: cell-based, Escherichia coli
# Description: as §3
# [1] = system: S. typhimurium CCARM 8007; type: cell-based, Salmonella typhimurium
# Description: as §3
# [2] = system: S. typhimurium CCARM 8009; type: cell-based, Salmonella typhimurium
# Description: as §3
# [3] = system: S. typhimurium CCARM 8013; type: cell-based, Salmonella typhimurium
# Description: as §3
# S. aureus CCARM 3089 = type: cell-based, Staphylococcus aureus
# Description: as §3
# S. aureus CCARM 3090 = type: cell-based, Staphylococcus aureus
# Description: as §3
# S. aureus CCARM 3108 = type: cell-based, Staphylococcus aureus
# Description: as §3
# S. aureus CCARM 3114 = type: cell-based, Staphylococcus aureus
# Description: as §3
# S. aureus CCARM 3126 = assay: MIC in antibiotic-tolerant strains; type: cell-based, Staphylococcus aureus
# Description: as §3
molecule,measurement,setting,value
OC(Cn1cncn1)(Cn1cncn1)c1ccc(F)cc1F [Fluconazole],MIC,C. albicans CCARM 14001,> 128 µM
same,MIC,C. albicans CCARM 14007,> 128 µM
same,MIC,C. albicans CCARM 14020,> 128 µM
CC[C@H](C)[C@H](NC(=O)CN)C(=O)NCC(=O)N[C@@H](C)C(=O)N[C@H](C(=O)N[C@@H](CC(C)C)C(=O)N[C@@H](CCCCN)C(=O)N[C@H](C(=O)N[C@@H](CC(C)C)C(=O)N[C@H](C(=O)N[C@H](C(=O)NCC(=O)N[C@@H](CC(C)C)C(=O)N1CCC[C@H]1C(=O)N[C@@H](C)C(=O)N[C@@H](CC(C)C)C(=O)N[C@H](C(=O)N[C@@H](CO)C(=O)N[C@@H](Cc1c[nH]c2ccccc12)C(=O)N[C@H](C(=O)N[C@@H](CCCCN)C(=O)N[C@@H](CCCNC(=N)N)C(=O)N[C@@H](CCCCN)C(=O)N[C@@H](CCCNC(=N)N)C(=O)N[C@@H](CCC(N)=O)C(=O)N[C@@H](CCC(N)=O)C(N)=O)[C@@H](C)CC)[C@@H](C)CC)[C@@H](C)O)[C@@H](C)O)C(C)C)C(C)C [Melittin],MIC,L. monocytogenes; PBS (number in bracket),(1.56) μM
same,MIC,L. monocytogenes; sodium phosphate buffer,1.56 µM
same,MIC,E. coli CCARM 1238; PBS (number in bracket),(1.56) μM
same,MIC,E. coli CCARM 1238; sodium phosphate buffer,1.56 µM
same,MIC,[1]; PBS (number in bracket),(12.5) μM
same,MIC,[1]; sodium phosphate buffer,6.25 µM
same,MIC,[2]; PBS (number in bracket),(12.5) μM
same,MIC,[2]; sodium phosphate buffer,6.25 µM
same,MIC,[3]; PBS (number in bracket),(6.25) μM
same,MIC,[3]; sodium phosphate buffer,3.12 µM
same,MIC,S. aureus CCARM 3089; PBS (number in bracket),(1.56) μM
same,MIC,S. aureus CCARM 3089; sodium phosphate buffer,1.56 µM
same,MIC,S. aureus CCARM 3090; PBS (number in bracket),(3.12) μM
same,MIC,S. aureus CCARM 3090; sodium phosphate buffer,3.12 µM
same,MIC,S. aureus CCARM 3108; PBS (number in bracket),(1.56) μM
same,MIC,S. aureus CCARM 3108; sodium phosphate buffer,1.56 µM
same,MIC,S. aureus CCARM 3114; PBS (number in bracket),(3.12) μM
same,MIC,S. aureus CCARM 3114; sodium phosphate buffer,3.12 µM
same,MIC,S. aureus CCARM 3126; PBS (number in bracket),(1.56) μM
same,MIC,S. aureus CCARM 3126; sodium phosphate buffer,1.56 µM
KWKWKWKW-NH2 [SEQ. ID. NO: 3],MIC,S. aureus CCARM 3126; sodium phosphate buffer,12.5 µM
